Values quoted from earlier work, collected in US11464736B2, “Thermally gelling drug formulations” (UNM Rainforest Innovations, priority 2019, dated 2022).

Legend:
[1] = target: CYP3A4 metabolizing enzyme (Homo sapiens, UniProt P08684)
[2] = not given; remark: listed apart in the source

Chain of CYP3A4 metabolizing enzyme (P08684 whole entry): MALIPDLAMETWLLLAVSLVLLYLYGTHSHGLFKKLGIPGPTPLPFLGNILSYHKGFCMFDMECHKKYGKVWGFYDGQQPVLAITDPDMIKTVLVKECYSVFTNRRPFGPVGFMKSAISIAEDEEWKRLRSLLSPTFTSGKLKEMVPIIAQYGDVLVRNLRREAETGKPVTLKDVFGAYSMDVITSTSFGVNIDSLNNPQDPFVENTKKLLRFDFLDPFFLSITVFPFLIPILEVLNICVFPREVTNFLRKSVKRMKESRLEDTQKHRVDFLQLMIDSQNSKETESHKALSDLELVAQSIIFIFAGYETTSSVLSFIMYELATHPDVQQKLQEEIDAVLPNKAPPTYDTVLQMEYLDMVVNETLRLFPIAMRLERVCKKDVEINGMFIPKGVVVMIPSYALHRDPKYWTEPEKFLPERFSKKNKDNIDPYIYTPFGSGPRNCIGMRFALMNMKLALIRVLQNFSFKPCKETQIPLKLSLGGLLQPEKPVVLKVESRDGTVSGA

inhibition of CYP3A4 [1] | log P | increase of oral bioavailability when taken with food [2] | Compound
competitive inhibitors |  |  | CC(=O)C(C)n1ncn(-c2ccc(N3CCN(c4ccc(OC[C@H]5CO[C@](Cn6cncn6)(c6ccc(Cl)cc6Cl)O5)cc4)CC3)cc2)c1=O (mixture of isomers) [keto-itraconazole]
 | 5.7-6.2 | 33-37% | CCC(C)n1ncn(-c2ccc(N3CCN(c4ccc(OCC5COC(Cn6cncn6)(c6ccc(Cl)cc6Cl)O5)cc4)CC3)cc2)c1=O (centres unmarked) [ITZ, Itraconazole]
competitive inhibitors |  |  | O=c1[nH]ncn1-c1ccc(N2CCN(c3ccc(OCC4COC(Cn5cncn5)(c5ccc(Cl)cc5Cl)O4)cc3)CC2)cc1 (centres unmarked) [N-desalkyl-itraconazole]

Compound | inhibition of CYP3A4 [1] | log P | increase of oral bioavailability when taken with food [2]
hydroxy-itraconazole | competitive inhibitors |  | 
